{"source": "patent US6693137B1", "about": "“Sulphonamide derivatives” (Eli Lilly and Company, priority 1998, dated 2004)"}
{"target": "T1, human GluR4B receptor (Homo sapiens, UniProt P48058)", "T1 construct": "expressed in transfected cells", "T1 sequence (P48058 21-902)": "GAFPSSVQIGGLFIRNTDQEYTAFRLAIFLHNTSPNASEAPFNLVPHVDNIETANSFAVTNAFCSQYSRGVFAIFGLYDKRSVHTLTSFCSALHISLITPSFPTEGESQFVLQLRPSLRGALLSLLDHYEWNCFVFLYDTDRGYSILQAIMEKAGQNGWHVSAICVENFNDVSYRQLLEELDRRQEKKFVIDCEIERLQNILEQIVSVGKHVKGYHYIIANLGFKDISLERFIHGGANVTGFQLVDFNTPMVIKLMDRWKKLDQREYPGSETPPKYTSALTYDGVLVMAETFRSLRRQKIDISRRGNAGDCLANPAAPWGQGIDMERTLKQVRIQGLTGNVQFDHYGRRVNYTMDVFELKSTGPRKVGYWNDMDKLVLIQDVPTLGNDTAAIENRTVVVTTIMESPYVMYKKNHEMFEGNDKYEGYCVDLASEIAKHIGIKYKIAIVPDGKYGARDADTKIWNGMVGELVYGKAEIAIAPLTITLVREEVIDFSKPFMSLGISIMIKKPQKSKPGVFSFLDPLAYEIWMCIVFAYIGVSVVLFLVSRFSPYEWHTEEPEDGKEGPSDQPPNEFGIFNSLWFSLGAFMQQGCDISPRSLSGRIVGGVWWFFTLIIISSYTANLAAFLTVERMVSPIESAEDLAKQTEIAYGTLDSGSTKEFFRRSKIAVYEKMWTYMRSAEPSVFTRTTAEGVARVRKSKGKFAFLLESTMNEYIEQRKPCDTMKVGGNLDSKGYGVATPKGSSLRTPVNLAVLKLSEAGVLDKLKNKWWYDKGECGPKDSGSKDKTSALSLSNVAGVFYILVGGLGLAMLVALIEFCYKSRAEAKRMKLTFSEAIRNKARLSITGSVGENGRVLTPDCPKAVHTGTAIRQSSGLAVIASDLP", "assay": "potentiation of agonist-induced excitability of human GluR4B receptor expressed in HEK 293 cells", "assay_type": "cell-based", "source_text": "The ability of compounds of formula I to potentiate glutamate receptor-mediated response may be determined using fluorescent calcium indicator dyes (Molecular Probes, Eugene, Oreg., Fluo-3) and by measuring glutamate-evoked efflux of calcium into GluR^4 transfected HEK293 cells, as described in more detail below.\nIn one test, 96 well plates containing confluent monolayers of HEK cells stably expressing human GluR4B (obtained as described in European Patent Application Publication Number EP-A1-583917) are prepared. The tissue culture medium in the wells is then discarded, and the wells are each washed once with 200 μl of buffer (glucose, 10 mM, sodium chloride, 138 mM, magnesium chloride, 1 mM, potassium chloride, 5 mM, calcium chloride, 5 mM, N-[2-hydroxyethyl]piperazine-N-[2-ethanesulfonic acid], 10 mM, to pH 7.1 to 7.3). […]\nEach test is then performed as follows. […] A second fluorescent reading is taken after 5 minutes incubation. 15 μl of 400 μM glutamate solution is then added to each well (final glutamate concentration 100 μM), and a third reading is taken. The activities of test compounds and cyclothiazide solutions are determined by subtracting the second from the third reading (fluorescence due to addition of glutamate in the presence or absence of test compound or cyclothiazide) and are expressed relative to enhance fluorescence produced by 100 μM cyclothiazide."}
{"smiles": "NS(=O)(=O)c1cc2c(cc1Cl)NC(C1CC3C=CC1C3)NS2(=O)=O", "note": "(stereo not drawn) [cyclothiazide]", "potentiation of agonist-induced excitability": "potentiate agonist-induced excitability"}
{"system": "not given", "assay": "not given", "units": {"melting point": "°C"}}
{"smiles": "CCOCC(=O)Nc1ccc(C(C)CNS(=O)(=O)C(C)C)cc1", "note": "(stereo not drawn)", "melting point": "113 to 116"}
{"smiles": "CC(CNS(=O)(=O)C(C)C)c1ccc(NC(=O)CN2CCCCC2)cc1", "note": "(stereo not drawn)", "melting point": "139 to 141"}
{"smiles": "CC(CNS(=O)(=O)C(C)C)c1ccc(-c2ccc(OCCN3CCCC3)cc2)cc1.Cl", "note": "(stereo not drawn)", "melting point": "172 to 173"}
{"smiles": "CC(CNS(=O)(=O)C(C)C)c1ccc(NC(=O)CN(C)C)cc1.O=C(O)/C=C\\C(=O)O", "note": "(stereo not drawn)", "melting point": "120 to 122"}
{"smiles": "CC(CNS(=O)(=O)C(C)C)c1ccc(NC(=O)COc2ccccn2)cc1", "note": "(stereo not drawn)", "melting point": "176 to 178"}
